Results reported in US20230172929A1, “NOVEL PERIPHERAL CANNABINOID-1 RECEPTOR ANTAGONISTS” (Yissum Research Development Company of the Hebrew …, priority 2019, published 2023).
“Also recorded” adds a separate entry of the source. Like-named read-outs stand apart in the source and are kept apart here. Blank lines part the entries; values can stand above or below the compound they belong to.

Columns and labels:
CB1R [1] = target: T1, CB1R (Mus musculus, UniProt P47746); assay: Radioligand binding assay, competition displacement of [3H]CP-55,940, CB1R
T1 construct: crude membranes from mouse brain for CB1R; from tissue; host or cells: mouse brain, crude membranes
T1 sequence (P47746 whole entry): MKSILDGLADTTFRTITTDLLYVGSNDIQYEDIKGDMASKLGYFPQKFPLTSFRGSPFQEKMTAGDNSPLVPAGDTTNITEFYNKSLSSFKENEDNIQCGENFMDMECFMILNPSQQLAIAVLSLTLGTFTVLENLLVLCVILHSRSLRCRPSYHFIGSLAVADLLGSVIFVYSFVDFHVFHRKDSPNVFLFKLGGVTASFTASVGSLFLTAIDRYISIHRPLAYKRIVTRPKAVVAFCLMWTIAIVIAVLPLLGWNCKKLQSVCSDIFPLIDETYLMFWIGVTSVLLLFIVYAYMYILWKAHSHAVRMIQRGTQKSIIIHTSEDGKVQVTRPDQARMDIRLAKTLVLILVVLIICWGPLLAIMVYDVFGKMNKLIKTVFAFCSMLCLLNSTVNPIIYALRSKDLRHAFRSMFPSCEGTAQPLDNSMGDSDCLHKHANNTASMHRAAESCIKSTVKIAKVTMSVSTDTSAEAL
Procedure: Radioligand binding assays: Binding to CB1R and CB2R was assessed in competition displacement assays using [3^H]CP-55,940 as the radioligand and crude membranes from mouse brain for CB1R or human cell membrane for CB2R, as reported previously. All data were in triplicates with Ki values determined from three independent experiments.
CB1R binding: The actual affinity of the 14 candidates was tested in a CB1R competitive binding assay.

[2] = Tissue levels of antagonists (brain, serum) by LC-MS/MS; assay type: in vivo, mice; settings: 1 hour after single dose
Procedure: Blood was collected, and the mice were perfused with phosphate buffered saline for 1 min to remove drug from the intravascular space before removing the brain and liver. Drug levels in tissue homogenates and plasma were determined by using LC-MS/MS.

CB1R [3] = target: T1, CB1R; assay: [35S]GTPγS binding, with and without CB1R agonist HU-210; assay type: biochemical; settings: mouse brain membranes, compounds at 10 μM, with and without HU-210 (100 nM)
Procedure: [^35S]GTPγS binding: Mouse brains (CB1R) or human cell membranes (CB2R) were dissected and P2 membranes prepared and resuspended at ˜2 μg protein/μL in 1 mL assay buffer (50 mM Tris HCl, 9 mM MgCl2, 0.2 mM EGTA, 150 mM NaCl; pH 7.4). Ligand-stimulated [^35S]GTPγS binding was assayed as described previously. Briefly, membranes (10 μg protein) were incubated in assay buffer containing 100 μM GDP, 0.05 nM [^35S]GTPγS, test compounds (HU-210, CP55,940 and tested molecules) at 10 μM, and 1.4 mg/mL fatty acid-free BSA in siliconized glass tubes. Bound ligand was separated from free ligand by vacuum filtration. Non-specific binding was determined using 10 μM GTPS. Basal binding was assayed in the absence of the ligand and in the presence of GDP.
The test was performed for each compound with and without the CB1R agonist HU-210 (100 nM).

mice = assay: Locomotor activity, CB1R-mediated hyperactivity; assay type: in vivo; settings: 10 mg/kg ip
Description: Locomotor Activity: Locomotor activity was quantified by the number of disruptions of infrared XYZ beam arrays with a beam spacing of 0.25 cm in the Promethion High-Definition Behavioral Phenotyping System (Sable Instruments, Inc., Las Vegas, Nev., USA).
We next tested whether the reduced brain penetrance of Compound 8/Compound 4 is associated with an attenuation of behavioral effects.

[4] = separated isomer R, read-out: Ki (μM) R
[5] = CB1R competitive binding, mouse brain membranes, [3H]CP-55,940, read-out: Ki
[6] = Mix (not separated), read-out: Ki (μM) Mix
[7] = CB1R competitive binding, values in text, read-out: CB1R Ki

- Ki (CB1R [1]; [4]): 4 µM
Structure (SMILES): CC1=C(C(=O)Nc2ccccc2C(F)(F)F)C(c2cccc(Oc3ccccc3)c2)NC(=S)N1 (single isomer, unassigned) [Compound 2-R]

- Ki (CB1R [1]; separated isomer S, read-out: Ki (μM) S): 6.33 µM
Structure (SMILES): CC1=C(C(=O)Nc2ccccc2C(F)(F)F)C(c2cccc(Oc3ccccc3)c2)NC(=S)N1 (single isomer, unassigned) [Compound 2-S]

- Ki (CB1R [1]; [4]): 1.3 µM
Structure (SMILES): CC(=O)c1cccc(S(=O)(=O)NCCC(=O)NCC(c2ccccc2Cl)c2c[nH]c3ccccc23)c1 (single isomer, unassigned) [Compound 3-R]

- Ki (CB1R [1]; separated isomer RR, read-out: Ki (μM) RR): 0.54 µM
- brain penetrance (brain levels vs serum levels) ([2]; mice, 10, 20, 50 mg/kg ip): markedly reduced brain penetrance
Structure (SMILES): CC(C)C(NC(=O)c1ccco1)C(=O)NCC(c1ccccc1Cl)c1c[nH]c2ccccc12 (single isomer, unassigned) [Compound 4-RR]

- Ki (CB1R [1]; separated isomer RS, read-out: Ki (μM) RS): 8.46 µM
Structure (SMILES): CC(C)C(NC(=O)c1ccco1)C(=O)NCC(c1ccccc1Cl)c1c[nH]c2ccccc12 (single isomer, unassigned) [Compound 4-RS]

- Ki (CB1R [1]; separated isomer SR, read-out: Ki (μM) SR): 0.48 µM
- brain penetrance (brain levels vs serum levels) ([2]; mice, 10, 20, 50 mg/kg ip): markedly reduced brain penetrance
Structure (SMILES): CC(C)C(NC(=O)c1ccco1)C(=O)NCC(c1ccccc1Cl)c1c[nH]c2ccccc12 (single isomer, unassigned) [Compound 4-SR]

- Ki (CB1R [1]; separated isomer SS, read-out: Ki (μM) SS): 1.66 µM
Structure (SMILES): CC(C)C(NC(=O)c1ccco1)C(=O)NCC(c1ccccc1Cl)c1c[nH]c2ccccc12 (single isomer, unassigned) [Compound 4-SS]

- Ki (CB1R [1]; [5]): 2.1 µM
- Ki (CB1R [1]; [6]): 3.36 µM
- activity (agonism, antagonism, inverse agonism) properties (CB1R [3]): inverse agonists
Structure (SMILES): CC1=C(C(=O)Nc2ccccc2C(F)(F)F)C(c2cccc(Oc3ccccc3)c2)NC(=S)N1 (centres unmarked) [Compound 2]

- Ki (CB1R [1]; [5]): 1.8 µM
- Ki (CB1R [1]; [6]): 1.1 µM
Structure (SMILES): CC(=O)c1cccc(S(=O)(=O)NCCC(=O)NCC(c2ccccc2Cl)c2c[nH]c3ccccc23)c1 (centres unmarked) [Compound 3]

- Ki (CB1R [1]; [5]): 1.1 µM
- Ki (CB1R [1]; [6]): 1 µM
Structure (SMILES): CC(C)C(NC(=O)c1ccco1)C(=O)NCC(c1ccccc1Cl)c1c[nH]c2ccccc12 (centres unmarked) [Compound 4]
- activity (agonism, antagonism, inverse agonism) properties (CB1R [3]): neutral antagonism; also recorded: antagonist

- Ki (CB1R [1]; [5]): 3.9 µM
Structure (SMILES): CC(NC(=O)Nc1ccccc1)C(=O)NCC(c1ccccc1Cl)c1c[nH]c2ccccc12 (centres unmarked) [Compound 7]

- Ki (CB1R [1]; [5]): 0.408 µM
- Ki (CB1R [1]; [7]): ~0.4 µM
- Ki (CB1R [1]; [6]): 0.346 µM
- activity (agonism, antagonism, inverse agonism) properties (CB1R [3]): inverse agonists
- brain penetrance (brain levels vs serum levels) ([2]; mice, 3, 10 and 30 mg/kg ip): markedly reduced brain penetrance
Structure (SMILES): CC1=C(C(=O)Nc2ccccc2C(F)(F)F)C(c2ccc(OCc3ccccc3)cc2)NC(=S)N1 (centres unmarked) [Compound 8]

- Ki (CB1R [1]; [5]): 0.414 µM
- Ki (CB1R [1]; [7]): ~0.4 µM
- activity (agonism, antagonism, inverse agonism) properties (CB1R [3]): positive allosteric modulator (PAM)
Structure (SMILES): N#Cc1ccc(CC(C#N)(Cc2ccc(C#N)cc2)c2nc(-c3ccc(Cl)c(Cl)c3)cs2)cc1 [Compound 10]

- Ki (CB1R [1]; [5]): 1.3 µM
- activity (agonism, antagonism, inverse agonism) properties (CB1R [3]): inverse agonists
Structure (SMILES): Cc1ccc(C(=O)C2SC(Nc3ccc(Cl)cc3)=C(C(=O)Nc3ccc(Cl)cc3)C2=N)cc1 (centres unmarked) [Compound 11]

- Ki (CB1R [1]; [5]): 3.4 µM
- activity (agonism, antagonism, inverse agonism) properties (CB1R [3]): inverse agonists
Structure (SMILES): Cc1ccc(NC(=S)Nc2ccc(C(C)C)cc2)c(S(=O)(=O)Nc2ccc(Cl)cc2)c1 [Compound 12]

- Ki (CB1R [1]; [5]): 6.5 µM
Structure (SMILES): CC(=O)Nc1ccc(C)c(S(=O)(=O)NCC(c2ccccc2Cl)c2c[nH]c3ccccc23)c1 (centres unmarked) [Compound 13]

- Ki (CB1R [1]; [5]): 0.938 µM
- Ki (CB1R [1]; [6]): 1.2 µM
- activity (agonism, antagonism, inverse agonism) properties (CB1R [3]): inverse agonists
Structure (SMILES): CC(=O)NC(CC(=O)NCC(c1ccccc1Cl)c1c[nH]c2ccccc12)c1ccc(C)cc1 (centres unmarked) [Compound 14]

Structure (SMILES): Cc1c(C(=O)NN2CCCCC2)nn(-c2ccc(Cl)cc2Cl)c1-c1ccc(Cl)cc1 [Rimonabant, reference compound]
- inducing CB1R-mediated hyperactivity (activity profile) (mice): induced a marked increase in the activity profile
